This is an account of results in patent US20210277003A1, “OGA INHIBITOR COMPOUNDS” (Janssen Pharmaceutica NV, priority 2018, published 2021).

For experiment [1], the target named is T1, recombinant human Meningioma Expressed Antigen 5 (MGEA5), also referred to as O-GlcNAcase (OGA) (Homo sapiens, UniProt O60502).
T1 construct: Full length OGA enzyme was purchased at OnGene (cat #TP322411); purchased OnGene (so in the source)
T1 sequence (O60502 1-916): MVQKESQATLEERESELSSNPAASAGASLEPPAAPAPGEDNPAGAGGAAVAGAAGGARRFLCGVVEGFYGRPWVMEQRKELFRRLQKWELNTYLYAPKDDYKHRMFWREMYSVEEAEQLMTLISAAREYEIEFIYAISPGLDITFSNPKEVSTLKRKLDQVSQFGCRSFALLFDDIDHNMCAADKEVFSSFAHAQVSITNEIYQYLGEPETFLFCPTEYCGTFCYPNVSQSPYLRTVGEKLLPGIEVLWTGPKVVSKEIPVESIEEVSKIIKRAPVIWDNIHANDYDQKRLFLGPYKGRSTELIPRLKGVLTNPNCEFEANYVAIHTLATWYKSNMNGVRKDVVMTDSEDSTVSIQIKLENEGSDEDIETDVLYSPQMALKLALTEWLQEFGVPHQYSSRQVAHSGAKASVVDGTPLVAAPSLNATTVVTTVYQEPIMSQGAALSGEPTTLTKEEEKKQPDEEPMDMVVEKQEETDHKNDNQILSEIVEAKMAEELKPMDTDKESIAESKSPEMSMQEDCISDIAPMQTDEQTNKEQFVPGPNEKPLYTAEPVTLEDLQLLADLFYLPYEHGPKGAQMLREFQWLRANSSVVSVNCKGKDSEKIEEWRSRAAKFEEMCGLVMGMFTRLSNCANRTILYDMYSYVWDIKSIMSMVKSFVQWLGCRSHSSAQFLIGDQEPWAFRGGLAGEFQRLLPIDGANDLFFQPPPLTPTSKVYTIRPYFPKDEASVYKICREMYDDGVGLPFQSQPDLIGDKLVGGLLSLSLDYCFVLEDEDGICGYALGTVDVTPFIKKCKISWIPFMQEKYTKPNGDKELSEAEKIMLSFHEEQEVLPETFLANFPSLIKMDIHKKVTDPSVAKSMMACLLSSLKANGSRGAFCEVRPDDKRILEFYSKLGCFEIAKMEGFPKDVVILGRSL
Kind of experiment: OGA biochemical assay: inhibition of hydrolysis of fluorescein mono-ß-D-N-Acetyl-Glucosamine (FM-GlcNAc), fluorescence readout. To be noted: FM-GlcNAc substrate; for Emax: read-out: Enzymatic Emax (%). The method, boiled down:
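Full-length recombinant human OGA (2 nM) was pre-incubated with compound for 60 min, then reacted with 100 uM FM-GlcNAc for 6 h at room temperature in 200 mM citrate/phosphate pH 7.2 with 0.005% Tween-20. Reactions were stopped with pH 11.0 carbonate and fluorescein read at 485/538 nm. IC50 and Hill coefficient came from curve fitting.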

Experiment [2] has as its system OGA in HEK293 cells inducible for P301L mutant human Tau (isoform 2N4R). Briefly: OGA cellular assay: immunocytochemical detection of O-GlcNAcylated proteins (CTD110.6 antibody). It is filed as cell-based. The conditions noted are these: Homo sapiens, HEK293, 6 h, 6 hours incubation; for Emax: maximum = Thiamet G 200 uM; for EC50: read-out: Cellular hOGA, pEC50 (converted). The method, boiled down: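 Cells seeded 2 days ahead in low-glucose assay medium and exposed to compounds for 6 h at 0.2% DMSO, then PFA-fixed and immunostained. Signal is 488 nm intensity from imaging (9 fields/well), with Hoechst nuclei counts as a toxicity check. IC50 from non-linear regression, with 200 uM Thiamet G per plate as maximum inhibition.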

The Emax is the maximal effect, on the per cent scale that the assay sets. Consider `Cc1cc(Cl)cc(C(F)(F)F)c1Nc1nccc2c1ccn2CC(C)(F)F` [Compound 129], for which, in experiment [1], the “Enzymatic hOGA; pIC50” value was determined as 8.59 and the Emax turned out to be 100%. Besides, in experiment [2], the Emax is 104% and the EC50 is 7.41 nM.
For `Cc1cc(C(F)(F)F)cc(C)c1Nc1nccc2c1ccn2CC(C)(F)F` [Compound 130] the same measures were 8.6, 102%, 93.7% and 3.16 nM.
In the case of `Cc1cc(C(F)(F)F)nc(C)c1Nc1nccc2c1ccn2CC(C)(F)F` [Compound 131], in experiment [1], the “Enzymatic hOGA; pIC50” value is 8.36 and the Emax was 102%. Besides, in experiment [2], the Emax turned out to be 78.7% and the EC50 was 15.5 nM.
In the case of `Cc1ccnc(OC(F)F)c1Nc1nccc2c1ccn2CC(C)(F)F` [Compound 132], in experiment [1], the “Enzymatic hOGA; pIC50” value is 7.94 and the Emax is 99.7%. Further, in experiment [2], the Emax was found to be 82.2% and the EC50 is 110 nM.
The matching figures for `Cc1cc(Cn2ccc3c(Nc4c(C)ccnc4C)nccc32)no1` [Compound 133]: 8.16, 101%, 76.1% and 87.1 nM.
The matching figures for `Cc1ccnc(C(F)F)c1Nc1nccc2c1ccn2CC(C)(F)F` [Compound 134]: 8.28, 99.9%, 77.5% and 81.3 nM.
The matching figures for `Cc1cc(C)c(Nc2nccc3c2ccn3CC(C)(F)F)c(C)c1` [Compound 135]: 8.64, 98.8%, 82.2% and 9.33 nM.
For the compound `Fc1cc(Cl)c(Nc2nccc3c2ccn3CC2CCCO2)c(Cl)c1` (stereo not shown) [Compound 136], in experiment [1], the “Enzymatic hOGA; pIC50” value stood at 7.64 and the Emax came out at 101%. Moreover, in experiment [2], the Emax stood at 74.9% and the EC50 was 240 nM.
For `Cc1ccnc(C)c1Nc1nccc2c1ccn2CC1CCCO1` (stereo not shown) [Compound 137] the same measures were 7.14, 99.1%, 60.4% and 513 nM.
For `Cc1ccnc(C(C)C)c1Nc1nccc2c1ccn2CC1CCCO1` (stereo not shown) [Compound 138] the same measures were 8.07, 103%, 66.8% and 74.1 nM.
The matching figures for `Fc1cc(Cl)c(Nc2nccc3c2ccn3CC2CCOC2)c(Cl)c1` (stereo not shown) [Compound 139]: 7.8, 104%, 69.7% and 398 nM.
For `Cc1ccnc(C)c1Nc1nccc2c1ccn2CC1CCOC1` (stereo not shown) [Compound 140], in experiment [1], the “Enzymatic hOGA; pIC50” value was 7.08 and the Emax amounted to 103%. Moreover, in experiment [2], the Emax stood at 63.9% and the EC50 was 603 nM.
Consider `Cc1ccnc(C(C)C)c1Nc1nccc2c1ccn2CC1CCOC1` (stereo not shown) [Compound 141], for which, in experiment [1], the “Enzymatic hOGA; pIC50” value is listed as 7.76 and the Emax came out at 103%. Also, in experiment [2], the Emax stood at 74.7% and the EC50 was 107 nM.
Regarding `Cc1ccnc(C)c1Nc1nccc2c1ccn2CC(C)O` (stereo not shown) [Compound 144], in experiment [1], the “Enzymatic hOGA; pIC50” value was 7.25 and the Emax was 100%. For the same compound, in experiment [2], the Emax worked out at 79% and the EC50 is 182 nM.
For `CC[C@@H](O)Cn1ccc2c(Nc3c(C)cc(F)cc3C)nccc21` [Compound 145a], in experiment [1], the “Enzymatic hOGA; pIC50” value was determined as 7.79 and the Emax stood at 100%. In addition, in experiment [2], the Emax stood at 81.2% and the EC50 is 56.2 nM.
As to `CC[C@H](O)Cn1ccc2c(Nc3c(C)cc(F)cc3C)nccc21` [Compound 145b], in experiment [1], the “Enzymatic hOGA; pIC50” value amounted to 8.46 and the Emax is 102%. Moreover, in experiment [2], the maximum response (Emax) turned out to be 85.7% and the EC50 is 26.9 nM.
